Assay results from patent publication EP0429304A2, “Pyridone-carboxylic acid derivatives and their use as veterinary medicines” (SHIONOGI SEIYAKU KABUSHIKI KAISHA trading under the name of …, priority 1989, dated 1991).
Like-named read-outs stand apart in the source and are kept apart here.

How the values were obtained:
[1] = test system: Salmonella typhimurium (S.typhi) 13311; assay: In vitro sensitivity test (agar dilution method); assay type: cell-based; conditions: 37°C, 20 to 24 hours
[2] = test system: H.pp (otherwise called Actinobacillus pleuropneumoniae) strain M-1; assay: Experimental H.pp infection to pig, through injection; assay type: in vivo; conditions: injection to thigh muscle one time, dissection 6 days after inoculation
Description: (§1) In these experiments, the compound (I) was applied to the designated animals by (1) oral administration, (2) incorporation into baits and (3) intramuscular injection, the details of which are explained below.
(3) Preparation of the MG infected fowls was performed in the same manner as in (1) above. Infection of H.pp (otherwise called Actinobacillus pleuropneumoniae) to cause pleuropneumonia in pig was performed by inoculating 5 ml of a fresh cultured strain (i.e. M-1) of H.pp to each nasopharyngeal of some 45 days pigs, each weighing 4 to 9 kg (4 to 5 pigs/group), followed by injection of the test compounds to each thigh muscle at a designated volume one time. Pigs were dissected 6 days after the inoculation. The evaluation of the antimicrobial activity was made by observation of the pneumonia symptomes in air sacs, number of dead body and degree of nodosity in air sacks on dissection.

[3] = test system: Pasteurella piscicida (P.pis) No. 2; assay: In vitro sensitivity test; assay type: cell-based; conditions: 25°C, 40 to 48 hours
Outline: (§2)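 Mycoplasma synoviae strains tested by liquid dilution in Frey medium with 12% pig serum and 0.01% βNAD, 37 °C for 7 days. P. piscicida grown on heart infusion agar with 1.5% NaCl, 25 °C for 40–48 h.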

[4] = test system: Mycoplasma synoviae (MS) F10-2as; assay: In vitro sensitivity test (liquid dilution method); assay type: cell-based; conditions: 37°C, 7 days
Outline: as §2

[5] = test system: TS-resistant strain of MG; assay type: in vivo, chicken; conditions: for Number of infected fowl/Number of fowl tested: 3.5 x 10³ CFU/fowl
[6] = test system: H.pg strain (i.e. 221); assay: Experimental H.pg infection to chicken, through bait; assay type: in vivo; conditions: 28-days chicken infected with 4 x 10⁸ CFU/fowl, dissection, 10th day after inoculation
Description: as §1

[7] = Acute toxicity (LD50); conditions: in vivo, read-out: LD₅₀
Description: The compounds (I) according to the invention show a higher antimicrobial activity than the control or commercially available antimicrobial agents with a smaller dosage. […]

[8] = test system: Escherichia coli (E.coli) JC-2; assay: In vitro sensitivity test (agar dilution method); assay type: cell-based; conditions: 37°C, 20 to 24 hours
[9] = test system: Escherichia coli (E.coli) E-17, chicken-origin strain isolated from the field; assay: In vitro sensitivity test (agar dilution method); assay type: cell-based; conditions: 37°C, 20 to 24 hours
Outline: (§3)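 Bacteria were of animal origin. MS strains were grown by liquid dilution in Frey medium with 12 % pig-serum and 0.01 % βNAD at 37°C for 7 days. S.au was tested by agar dilution on Mueller Hinton agar, 37°C for 20 to 24 hours. P.pis was grown on 1.5 % NaCl heart infusion agar at 25°C for 40 to 48 hours.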

[10] = test system: Hemophilus paragallinarum (H.pg) 221; assay: In vitro sensitivity test (agar dilution method); assay type: cell-based; conditions: agar dilution, 37°C, 20 hours, 10 % CO₂
[11] = test system: Staphylococcus aureus (S.au) 209P; assay: In vitro sensitivity test (agar dilution method); assay type: cell-based; conditions: 37°C, 20 to 24 hours
Outline: as §3

[12] = test system: Hemophilus pleuropneumonia (H.pp) M-1; assay: In vitro sensitivity test (agar dilution method); assay type: cell-based; conditions: 37°C, 20 hours, 10 % CO₂
[13] = test system: Hemophilus paragallinarum (H.pg) S-1; assay: In vitro sensitivity test (agar dilution method); assay type: cell-based; conditions: agar dilution, 37°C, 20 hours, 10 % CO₂
[14] = test system: Bordetella bronchiseptica (B.br) ABU-1; assay: In vitro sensitivity test (agar dilution method); assay type: cell-based; conditions: 37°C, 20 to 24 hours
[15] = test system: TS-resistant MG; assay: Experimental MG infection to chicken, through bait; assay type: in vivo; conditions: 9-days chicken; for Number of fowl having air sack lesions: 1.8 x 10³ CFU/fowl; for Number of infected fowl/Number of fowl tested: 6.6 x 10³ CFU/fowl, dissection 6th day after inoculation
[16] = test system: Mycoplasma synoviae (MS) 1853; assay: In vitro sensitivity test (liquid dilution method); assay type: cell-based; conditions: 37°C, 7 days
Outline: as §2

[17] = test system: Mycoplasma gallisepticum (MG) T-7-T, TS-resistant strain isolated from the field; assay: In vitro sensitivity test (liquid dilution method); assay type: cell-based; conditions: 37°C, 7 days
[18] = test system: Mycoplasma gallisepticum (MG) S6; assay: In vitro sensitivity test (liquid dilution method); assay type: cell-based; conditions: 37°C, 7 days
[19] = test system: Mycoplasma hyopneumoniae (Mh) ST-11; assay: In vitro sensitivity test (liquid dilution method); assay type: cell-based; conditions: 37°C, 7 days
[20] = test system: TS-resistant MG; assay: Experimental MG infection to chicken, through injection; assay type: in vivo; conditions: 5 fowl tested, 10-days chicken, 3.1 x 10³ CFU/fowl

CNCC12CCCC1CN(c1c(F)cc3c(=O)c(C(=O)O)cn(C4CC4)c3c1F)C2.Cl (stereo not shown) [I-5]
In vitro Sensitivity Test S.typhi 13311 [1]: 0.2 µg/mL | Number of pig died or developed dyspnea/Number of pig tested ([2]; Dose 10 mg/kg): 0/4 | Number of pig having nodi/Number of pig tested ([2]; Dose 10 mg/kg): 0/4 | In vitro Sensitivity Test P.pis No. 2 [3]: 1.56 µg/mL | In vitro Sensitivity Test MS F10-2as [4]: 0.2 µg/ml | antimicrobial activity compared with ERFX ([5]; in vivo, po): two times more effective than ERFX | complete inihibition of the lesions in air sac at a concentration of ([5]; in vivo, po): about 3.13 mg/kg | Infectious index Left air sack + ([5]; in vivo, po, 1.56 mg/kg): 0 | Infectious index Left air sack ++ ([5]; in vivo, po, 1.56 mg/kg): 0 | Infectious index Left air sack +++ ([5]; in vivo, po, 1.56 mg/kg): 0 | Infectious index Left air sack - ([5]; in vivo, po, 1.56 mg/kg): 4 | Infectious index Right air sack + ([5]; in vivo, po, 1.56 mg/kg): 0 | Infectious index Right air sack ++ ([5]; in vivo, po, 1.56 mg/kg): 1 | Infectious index Right air sack +++ ([5]; in vivo, po, 1.56 mg/kg): 1 | Infectious index Right air sack - ([5]; in vivo, po, 1.56 mg/kg): 2 | Number of fowl having air sack lesions ([5]; in vivo, po, 1.56 mg/kg): 2 | Infectious index Left air sack + ([5]; in vivo, po, 3.13 mg/kg): 0 | Infectious index Left air sack ++ ([5]; in vivo, po, 3.13 mg/kg): 0 | Infectious index Left air sack +++ ([5]; in vivo, po, 3.13 mg/kg): 0 | Infectious index Left air sack - ([5]; in vivo, po, 3.13 mg/kg): 5 | Infectious index Right air sack + ([5]; in vivo, po, 3.13 mg/kg): 0 | Infectious index Right air sack ++ ([5]; in vivo, po, 3.13 mg/kg): 0 | Infectious index Right air sack +++ ([5]; in vivo, po, 3.13 mg/kg): 0 | Infectious index Right air sack - ([5]; in vivo, po, 3.13 mg/kg): 5 | Number of fowl having air sack lesions ([5]; in vivo, po, 3.13 mg/kg): 0 | Infectious index Left air sack + ([5]; in vivo, po, 6.25 mg/kg): 0 | Infectious index Left air sack ++ ([5]; in vivo, po, 6.25 mg/kg): 0 | Infectious index Left air sack +++ ([5]; in vivo, po, 6.25 mg/kg): 0 | Infectious index Left air sack - ([5]; in vivo, po, 6.25 mg/kg): 5 | Infectious index Right air sack + ([5]; in vivo, po, 6.25 mg/kg): 0 | Infectious index Right air sack ++ ([5]; in vivo, po, 6.25 mg/kg): 0 | Infectious index Right air sack +++ ([5]; in vivo, po, 6.25 mg/kg): 0 | Infectious index Right air sack - ([5]; in vivo, po, 6.25 mg/kg): 5 | Number of fowl having air sack lesions ([5]; in vivo, po, 6.25 mg/kg): 0 | Infectious index Left air sack + ([5]; in vivo, po, 25 mg/kg): 0 | Infectious index Left air sack ++ ([5]; in vivo, po, 25 mg/kg): 0 | Infectious index Left air sack +++ ([5]; in vivo, po, 25 mg/kg): 0 | Infectious index Left air sack - ([5]; in vivo, po, 25 mg/kg): 5 | Infectious index Right air sack + ([5]; in vivo, po, 25 mg/kg): 0 | Infectious index Right air sack ++ ([5]; in vivo, po, 25 mg/kg): 0 | Infectious index Right air sack +++ ([5]; in vivo, po, 25 mg/kg): 0 | Infectious index Right air sack - ([5]; in vivo, po, 25 mg/kg): 5 | Number of fowl having air sack lesions ([5]; in vivo, po, 25 mg/kg): 0 | Effective concentration to prevent pituita [6]: 1.56 ppm/day | LD50 ([7]; ip, Mouse (B6C3F₁, male), i.p.): 200 mg/kg | LD50 ([7]; po, Chicken ( -days), p.o.): 500 mg/kg | LD50 ([7]; po, Mouse (B6C3F₁, male), p.o.): 2000 mg/kg

CCN1CCN(c2cc3c(cc2F)c(=O)c(C(=O)O)cn3C2CC2)CC1 [ERFX, Enrofuroxasin®, reference compound]
In vitro Sensitivity Test E.coli JC-2 [8]: 0.1 µg/mL | In vitro Sensitivity Test E.coli E-17 [9]: 0.1 µg/ml | In vitro Sensitivity Test H.pg 221 [10]: 0.1 µg/mL | In vitro Sensitivity Test S.au 209P [11]: 0.1 µg/mL | In vitro Sensitivity Test H.pp M-1 [12]: 0.2 µg/mL | In vitro Sensitivity Test H.pg S-1 [13]: 0.2 µg/mL | In vitro Sensitivity Test B.br ABU-1 [14]: 0.1 µg/mL | Number of fowl having air sack lesions ([15]; bait 15.6 ppm/Day): 1 | Number of fowl having air sack lesions ([15]; bait 31.3 ppm/Day): 0 | Number of infected fowl/Number of fowl tested ([15]; bait 31.3 ppm/Day): 1/7 | Number of fowl having air sack lesions ([15]; bait 62.5 ppm/Day): 0 | Number of infected fowl/Number of fowl tested ([15]; bait 62.5 ppm/Day): 0/7 | Number of infected fowl/Number of fowl tested ([15]; bait 125 ppm/Day): 0/7 | Number of pig died or developed dyspnea/Number of pig tested ([2]; Dose 5 mg/kg): 0/4 | Number of pig having nodi/Number of pig tested ([2]; Dose 5 mg/kg): 0/4 | Number of pig died or developed dyspnea/Number of pig tested ([2]; Dose 10 mg/kg): 0/4 | Number of pig having nodi/Number of pig tested ([2]; Dose 10 mg/kg): 0/4 | In vitro Sensitivity Test MS 1853 [16]: 0.1 µg/mL | In vitro Sensitivity Test MG T-7-T [17]: 0.1 µg/mL | In vitro Sensitivity Test MG S6 [18]: 0.1 µg/mL | In vitro Sensitivity Test Mh ST-11 [19]: 0.05 µg/mL | In vitro Sensitivity Test MS F10-2as [4]: 3.13 µg/ml | Number of fowl having air sack lesions ([20]; Dose 1.56 mg/kg): 3 | Number of fowl having air sack lesions ([20]; Dose 3.13 mg/kg): 2 | Number of infected fowl/Number of fowl tested ([5]; oral 1.56 mg/kg, 9-days chicken): 2/5 | Number of fowl having air sack lesions ([5]; oral 3.13 mg/kg, 9-days chicken, 2.2 x 10³ CFU/fowl): 2 | Number of infected fowl/Number of fowl tested ([5]; oral 3.13 mg/kg, 9-days chicken): 0/5 | Number of fowl having air sack lesions ([5]; oral 6.25 mg/kg, 9-days chicken, 1.7 x 10³ CFU/fowl): 1 | Number of fowl having air sack lesions ([5]; oral 6.25 mg/kg, 9-days chicken, 2.2 x 10³ CFU/fowl): 0 | Number of infected fowl/Number of fowl tested ([5]; oral 6.25 mg/kg, 9-days chicken): 0/5 | Number of fowl having air sack lesions ([5]; oral 6.25 mg/kg, 10-days chicken, 1.2 x 10³ CFU/fowl): 2 | Number of fowl having air sack lesions ([5]; oral 6.25 mg/kg, 10-days chicken, 3.0 x 10³ CFU/fowl): 2 | Number of fowl having air sack lesions ([5]; oral 12.5 mg/kg, 9-days chicken, 1.7 x 10³ CFU/fowl): 0 | Number of fowl having air sack lesions ([5]; oral 12.5 mg/kg, 9-days chicken, 2.2 x 10³ CFU/fowl): 0 | Number of fowl having air sack lesions ([5]; oral 12.5 mg/kg, 10-days chicken, 1.2 x 10³ CFU/fowl): 0 | Number of fowl having air sack lesions ([5]; oral 12.5 mg/kg, 10-days chicken, 3.0 x 10³ CFU/fowl): 0 | Number of fowl having air sack lesions ([5]; oral 25.0 mg/kg, 9-days chicken, 1.7 x 10³ CFU/fowl): 0 | Number of fowl having air sack lesions ([5]; oral 25.0 mg/kg, 10-days chicken, 1.2 x 10³ CFU/fowl): 0 | Number of fowl having air sack lesions ([5]; oral 25.0 mg/kg, 10-days chicken, 3.0 x 10³ CFU/fowl): 0 | complete inihibition of the lesions in air sac at a concentration of ([5]; oral administration, MG-infected chicken): 12.5 mg/kg | Effective concentration to prevent pituita [6]: 7.8 ppm/day
